In US5583123A, “Certain tetrazole derivatives” (priority 1994, dated 1996):

Molecular target: T1, Endothelin converting enzyme (ECE) (Sus scrofa, UniProt A0A8W4FBH0)
T1 construct: partially purified from porcine primary aortic endothelial cells; endogenous in cells; host or cells: porcine primary aortic endothelial cells (partially purified by DE52 anion exchange)
T1 sequence (A0A8W4FBH0 1-751): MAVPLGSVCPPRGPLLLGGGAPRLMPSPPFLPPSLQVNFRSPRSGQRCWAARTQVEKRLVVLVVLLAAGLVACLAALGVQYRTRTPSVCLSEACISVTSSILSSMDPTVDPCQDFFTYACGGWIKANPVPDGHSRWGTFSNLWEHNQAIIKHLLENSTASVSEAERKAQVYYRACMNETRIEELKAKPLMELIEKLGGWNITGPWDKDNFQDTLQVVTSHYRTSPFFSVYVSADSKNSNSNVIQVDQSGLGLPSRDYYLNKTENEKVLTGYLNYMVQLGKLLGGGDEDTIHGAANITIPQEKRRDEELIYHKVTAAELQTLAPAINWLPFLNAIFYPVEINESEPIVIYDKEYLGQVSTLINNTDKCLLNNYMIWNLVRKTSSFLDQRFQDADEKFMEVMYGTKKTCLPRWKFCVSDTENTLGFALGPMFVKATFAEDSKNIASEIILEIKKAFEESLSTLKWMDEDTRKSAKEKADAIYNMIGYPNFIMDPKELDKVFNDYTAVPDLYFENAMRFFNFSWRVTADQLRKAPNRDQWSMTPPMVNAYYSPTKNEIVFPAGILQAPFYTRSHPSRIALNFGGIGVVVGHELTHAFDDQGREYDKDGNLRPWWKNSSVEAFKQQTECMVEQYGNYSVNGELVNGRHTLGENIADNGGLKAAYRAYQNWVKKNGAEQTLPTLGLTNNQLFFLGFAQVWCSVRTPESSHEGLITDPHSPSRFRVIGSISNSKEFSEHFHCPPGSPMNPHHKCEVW
Assay: in vitro assay for endothelin converting enzyme inhibition (radioimmunoassay of ET-1 formed from big ET-1)
Type: biochemical, porcine
Excerpt: The ECE inhibition can be determined as described in Biochem. Mol. Biol. Int. […] In vitro testing is most appropriate for the free phosphonic acids of the invention.

IC50 (ECE partially purified from porcine primary aortic endothelial cells, pH 7.4 buffer): ~0.37 µM
relative activity as ECE inhibitor (diastereomer A versus diastereomer B) (comparison of the two diastereomers of Example 1): more active
Structure (SMILES): O=P(O)(O)C(CCc1cccc2ccccc12)N[C@@H](Cc1ccc(-c2ccccc2)cc1)c1nnn[nH]1 (single isomer, unassigned) [1 (a)]
